Results from article PMC8934569 (Cancer chemotherapy and pharmacology, 2021).

Key:
[1] = tested on: MX-1 BRCA1 deficient breast cancer model; conditions: in vivo; cited from earlier work
metastatic breast cancer = conditions: with veliparib 200 mg BID in 21-day cycles; cited from earlier work
[2] = Drug-related adverse events graded by NCI CTCAE version 4.0; assay type: in vivo, human; conditions: overall, 80 patients enrolled; given with veliparib
[3] = cyclophosphamide iv at 450 mg/m^2 and 750 mg/m^2

O=P1(N(CCCl)CCCl)NCCCO1 (stereo not shown) [cyclophosphamide]
Tumor effect of single agent [1]: only delayed tumor growth slightly
Recommended phase II dose of cyclophosphamide (metastatic breast cancer): 125 mg po daily
Patients with a dose reduction of cyclophosphamide [2]: 3 patients
Effect of oral veliparib on cyclophosphamide PK [3]: not influenced by veliparib
